In brackets after ≈: the same amount, converted by molar mass.
Test system: Mycobacterium tuberculosis
Assay: Antimycobacterial activity against rifampin,isoniazid-resistant Mycobacterium tuberculosis expressing rpoB/katG mutant after 10 days by microbroth dilution method
Format: functional

Compound | MIC
c1csc(-c2ccc(-c3ccncn3)s2)c1 | 51.16 µM (≈ 12.5 µg/mL)
Brc1ccc(-c2cncnc2)s1 | 51.84 µM (≈ 12.5 µg/mL)
c1csc(-c2ncncc2-c2ccsc2)c1 | 25.58 µM (≈ 6.25 µg/mL)
c1csc(-c2ccc(-c3ncncc3-c3ccsc3)s2)c1 | 19.14 µM (≈ 6.25 µg/mL)
c1ccc(-c2ccc(-c3ncncc3-c3ccsc3)s2)cc1 | 19.5 µM (≈ 6.25 µg/mL)
Brc1ccc(-c2ncncc2-c2ccsc2)s1 | 19.34 µM (≈ 6.25 µg/mL)
c1csc(-c2ncncc2-c2cc3ccccc3s2)c1 | 21.23 µM (≈ 6.25 µg/mL)
c1csc(-c2ccc(-c3ncncc3-c3cc4ccccc4s3)s2)c1 | 33.2 µM (≈ 12.5 µg/mL)
c1ccc(-c2ccc(-c3ncncc3-c3cc4ccccc4s3)s2)cc1 | 8.37 µM (≈ 3.1 µg/mL)
Brc1ccc(-c2ncncc2-c2cc3ccccc3s2)s1 | 33.49 µM (≈ 12.5 µg/mL)
c1csc(-c2ncncc2-c2csc3ccccc23)c1 | 42.46 µM (≈ 12.5 µg/mL)
c1csc(-c2ccc(-c3ncncc3-c3csc4ccccc34)s2)c1 | 0.98 µM (≈ 0.369 µg/mL)
c1ccc(-c2ccc(-c3ncncc3-c3csc4ccccc34)s2)cc1 | 0.4 µM (≈ 0.148 µg/mL)
Brc1ccc(-c2ncncc2-c2csc3ccccc23)s1 | 8.3 µM (≈ 3.1 µg/mL)
Brc1cncnc1 | 78.62 µM (≈ 12.5 µg/mL)
c1csc(-c2cncnc2)c1 | 38.53 µM (≈ 6.25 µg/mL)
c1ncc(-c2ccsc2)cn1 | 77.06 µM (≈ 12.5 µg/mL)
c1ccc2sc(-c3cncnc3)cc2c1 | 58.89 µM (≈ 12.5 µg/mL)
c1ccc2c(-c3cncnc3)csc2c1 | 7.07 µM (≈ 1.5 µg/mL)
c1csc(-c2ccc(-c3cncnc3)s2)c1 | 25.58 µM (≈ 6.25 µg/mL)
c1ccc(-c2ccc(-c3cncnc3)s2)cc1 | 26.23 µM (≈ 6.25 µg/mL)
Brc1ccc(-c2ncncc2Br)s1 | 9.69 µM (≈ 3.1 µg/mL)
c1csc(-c2cncnc2-c2cccs2)c1 | 12.69 µM (≈ 3.1 µg/mL)
c1csc(-c2ccc(-c3ncncc3-c3cccs3)s2)c1 | 2.14 µM (≈ 0.699 µg/mL)
c1ccc(-c2ccc(-c3ncncc3-c3cccs3)s2)cc1 | 39.01 µM (≈ 12.5 µg/mL)
Brc1ccc(-c2ncncc2-c2cccs2)s1 | 38.67 µM (≈ 12.5 µg/mL)
